Data as given in patent US10280138B2, “Nitric oxide donating derivatives of fluprostenol” (NICOX S.A., priority 2015, dated 2019).

Test system: transiently ocular hypertensive New Zealand white rabbits
Assay: Intraocular pressure (IOP) lowering activity in hypertonic saline-induced IOP increase in rabbits
Type: in vivo
Conditions: for Mean IOP changes vs vehicle and baseline, 60 min: 60 min after topical application, hypertonic saline 5% intravitreal; for Mean IOP changes vs vehicle and baseline, 60 min / IOP60 min reduction vs vehicle / Mean IOP changes vs vehicle and baseline, 120 min / Mean IOP changes vs vehicle and baseline, 240 min / Maximal IOP reduc. / Mean IOP changes vs vehicle and baseline, 90 min / Mean IOP changes vs vehicle and baseline, 180 min / Mean IOP changes vs vehicle and baseline, 300 min: dose (%); for IOP60 min reduction vs vehicle / Delta60 min vs parent drug: 60 minutes after topical administration; for Delta60 min vs parent drug: parent drug bimatoprost (A-1, B-1) or fluprostenol isopropyl ester (Comp. 9-13); for Mean IOP changes vs vehicle and baseline, 120 min: 120 min after topical application; for Mean IOP changes vs vehicle and baseline, 120 min / Mean IOP changes vs vehicle and baseline, 240 min: treatment group A (Tono-Pen VET); for Mean IOP changes vs vehicle and baseline, 240 min: 240 min after topical application; for Maximal IOP reduc.: topical application; for Mean IOP changes vs vehicle and baseline, 90 min: 90 min after topical application; for Mean IOP changes vs vehicle and baseline, 90 min / Mean IOP changes vs vehicle and baseline, 180 min / Mean IOP changes vs vehicle and baseline, 300 min: treatment group B (pneumatonometer); for Mean IOP changes vs vehicle and baseline, 180 min: 180 min after topical application; for Mean IOP changes vs vehicle and baseline, 300 min: 300 min after topical application
From the text: Intraocular Pressure (IOP) Lowering Activity in Hypertonic Saline-Induced IOP Increase in Rabbits
Compounds (9), (10), (11), (12) and (13) of the invention and compounds (A-1) and (B-1) disclosed in WO 2009/136281 were directly compared with fluprostenol isopropyl ester and bimatoprost, in the same model of ocular hypertensive rabbit. The hypotensive effects of the two groups of compounds were independently evaluated at different time points and in different sets of hypertensive rabbits.
Test compounds and dose (equimolar to the correspondent parent drug)
Vehicle: buffered aqueous solution pH 6, polyoxyl 40 hydrogenated castor oil 5 mg/ml, tromethamine 10 mg/ml, boric acid 6 mg/ml, mannitol 40 mg/ml, edetate disodium 0.5 mg/ml and benzalkonium chloride 0.15 mg/mL
Male New Zealand white rabbits weighing 2.0-2.5 kg were used in the experiments. The transient increase in IOP was induced by the injection of 0.1 ml of hypertonic saline solution (5%) into the vitreous of both eyes.
(§1) Intraocular pressure (IOP) was determined using a Tono-Pen VET prior to hypertonic saline injection (basal) and at 30, 60, 120 and 240 min thereafter. Vehicle or tested compound dissolved in the vehicle was instilled immediately after the injection of hypertonic saline into the conjunctival pocket. Eyes were randomly assigned to different treatment groups.
One drop of 0.4% oxybuprocaine hydrochloride (Novesine, Sandoz) was instilled in each eye immediately before each set of pressure measurements.
Treatment Groups B (Prior Art Compounds)
Vehicle: tween 80 0.5%, 0.2 mg/ml benzalkonium chloride, 0.3% DMSO in PBS pH 6.7
as §1, with “pneumatonometer” for “Tono-Pen VET”, “90, 180” for “120”, “300” for “240”
The intraocular pressure values measured following topical application of the tested compounds are reported in Table 1 expressed as mean IOP change in treated eyes versus vehicle-treated eyes at same time point and baseline; Table 1 also reports the maximal IOP reduction of the tested compounds expressed in percentage.

SMILES	Mean IOP changes vs vehicle and baseline, 60 min [mmHg]	IOP60 min reduction vs vehicle [%]	Delta60 min vs parent drug	Mean IOP changes vs vehicle and baseline, 120 min [mmHg]	Mean IOP changes vs vehicle and baseline, 240 min [mmHg]	Maximal IOP reduc. [%]	Mean IOP changes vs vehicle and baseline, 90 min [mmHg]	Mean IOP changes vs vehicle and baseline, 180 min [mmHg]	Mean IOP changes vs vehicle and baseline, 300 min [mmHg]
CC(C)OC(=O)CCC/C=C\C[C@@H]1[C@@H](/C=C/[C@@H](O)COc2cccc(C(F)(F)F)c2)[C@H](O)C[C@@H]1O [Fluprostenol isopropyl ester, reference compound]	−0.08 ± 1.2	3	0 mmHg	−2.0 ± 1.3	−0.4 ± 0.9	–	–	–	–
CC(C)OC(=O)CCC/C=C\C[C@@H]1[C@@H](/C=C/[C@H](COc2cccc(C(F)(F)F)c2)OC(=O)CCCC(CO[N+](=O)[O-])O[N+](=O)[O-])[C@H](O)C[C@@H]1O (stereo partly drawn) [Comp. (10), (Z)-isopropyl 7-((1R,2R,3R,5S)-2-((3R,E)-3-(5,6-bis(nitrooxy)hexanoyloxy)-4-(3-(trifluoromethyl)phenoxy)but-1-enyl)-3,5-dihydroxycyclopentyl)hept-5-enoate]	−9.2 ± 1.0	28	−9.1 mmHg	−8.8 ± 1.2	−1.2 ± 0.8	26 ± 3	–	–	–
CCNC(=O)CCC/C=C\C[C@@H]1[C@@H](/C=C/[C@H](CCc2ccccc2)OC(=O)CCCO[N+](=O)[O-])[C@H](O)C[C@@H]1O [Compound A-1, (1S,2E)-3-{(1R,2R,3 S,5R)-2-[(2Z)-7-(Ethylamino)-7-oxohept-2-en-1-yl]-3,5-dihydroxycyclopentyl}-1-(2-phenylethyl)prop-2-en-1-yl 4-(nitrooxy) butanoate, reference compound]	−0.06 ± 5.2	4	Not effective	–	–	3 ± 9	0.03 ± 5.0	1.1 ± 2.8	−1.9 ± 3.2
CCNC(=O)CCC/C=C\C[C@@H]1[C@@H](/C=C/[C@H](CCc2ccccc2)OC(=O)CCCCCO[N+](=O)[O-])[C@H](O)C[C@@H]1O [Compound B-1, (1S,2E)-3-{(1R,2R,3S,5R)-2-[(2Z)-7-(Ethylamino)-7-oxohept-2-en-1-yl]-3,5-dihydroxycyclopentyl}-1-(2-phenylethyl)prop-2-en-1-yl 6-(nitrooxy) hexanoate, reference compound]	−3.9 ± 2.5	7	−2.1 mmHg	–	–	10 ± 3	−5.6 ± 2.8	5.3 ± 1.5	−3.9 ± 1.9
CC(C)OC(=O)CCC/C=C\C[C@@H]1[C@@H](/C=C/[C@H](COc2cccc(C(F)(F)F)c2)OC(=O)CCOCC(CO[N+](=O)[O-])O[N+](=O)[O-])[C@H](O)C[C@@H]1O (stereo partly drawn) [Comp. (12), (Z)-isopropyl 7-((1R,2R,3R,5S)-2-((3R,E)-3-(3-(2,3-bis(nitrooxy)propoxy)propanoyloxy)-4-(3-(trifluoromethyl)phenoxy)but-1-enyl)-3,5 dihydroxycyclopentyl)hept-5-enoate]	−7.1 ± 0.8	22	−7.0 mmHg	−9.6 ± 1.0	−2.9 ± 0.5	38 ± 3	–	–	–
CCNC(=O)CCC/C=C\C[C@@H]1[C@@H](/C=C/[C@@H](O)CCc2ccccc2)[C@H](O)C[C@@H]1O [Bimatoprost, reference compound]	−1.8 ± 2.4	1	0 mmHg	–	–	–	−2.7 ± 2.0	0.8 ± 1.5	0.3 ± 2.6
O=C(O)CCC/C=C\C[C@@H]1[C@@H](/C=C/[C@H](COc2cccc(C(F)(F)F)c2)OC(=O)CCCC(CO[N+](=O)[O-])O[N+](=O)[O-])[C@H](O)C[C@@H]1O (stereo partly drawn) [Comp. (13), (Z)-7-((1R,2R,3R,5S)-2-((R,E)-3-(5,6-bis(nitrooxy)hexanoyloxy)-4-(3-(trifluoromethyl)phenoxy)but-1-enyl)-3,5-dihydroxycyclopentyl)hept-5-enoic acid]	−8.6 ± 1.2	31	−8.5 mmHg	−6.9 ± 0.9	−0.3 ± 1.0	39 ± 3	–	–	–
CC(C)OC(=O)CCC/C=C\C[C@@H]1[C@@H](/C=C/[C@H](COc2cccc(C(F)(F)F)c2)OC(=O)COCCO[N+](=O)[O-])[C@H](O)C[C@@H]1O [Comp. (11), (Z)-isopropyl 7-((1R,2R,3R,5S)-3,5-dihydroxy-2-((R,E)-3-(2-(2-nitrooxyethoxy)acetoxy)-4-(3-(trifluoromethyl)phenoxy)but-1-enyl)cyclopentyl)hept-5-enoate]	−9.7 ± 0.8	32	−9.6 mmHg	−7.4 ± 0.9	−3.2 ± 0.6	37 ± 4	–	–	–
CC(C)OC(=O)CCC/C=C\C[C@@H]1[C@@H](/C=C/[C@H](COc2cccc(C(F)(F)F)c2)OC(=O)CCCCCO[N+](=O)[O-])[C@H](O)C[C@@H]1O [Comp. (9)]	−6.6 ± 0.9	20	−6.5 mmHg	−8.2 ± 1.2	−2.0 ± 0.7	23 ± 3	–	–	–
